Laboratory results as given in patent publication US20120302566A1, “INDANYLOXYDIHYDROBENZOFURANYLACETIC ACIDS” (BOEHRINGER INGELHEIM INTERNATIONAL GMBH, priority 2010, published 2012).

Target: T1, human GPR40 receptor (Homo sapiens, UniProt O14842)
Assay: IP1 accumulation measurements using the IPOne assay system
Type: cell-based
Settings: IP1 accumulation (IPOne HTRF), 1 hour stimulation; 1321N1 cells stably expressing human GPR40; read-out: EC50 values on GPR40 determined as described in (B)
Description: (B) IP1 accumulation measurements using the IPOne assay system—1321N1 cells stably expressing human GPR40 receptor (Euroscreen, Belgium) were seeded 24 h before the assay in black clear-bottom collagen-coated 384-well plates in culture medium containing 10% FCS, 1% Na-Pyruvate and 400 μg/mL G418. IP1 is assayed according to the Manufacturer's description (Cisbio Bioassays, France). In brief, the assay is started by substitution of the culture medium by stimulation buffer (Hepes 10 mM, CaCl2 1 mM, MgCl2 0.5 mM, KCl 4.2 mM, NaCl 146 mM and glucose 5.5 mM, pH 7.4) without LiCl. Cells are stimulated for 1 hour at 37°, 10% CO2 by addition of the compounds that were diluted in stimulation buffer containing LiCl yielding a final LiCl concentration of 50 mM. Assays are stopped by adding HTRF-conjugates (IP1-d2 and Anti-IP1 cryptate Tb) and lysis buffer, provided by the manufacturer. After an incubation time of 1 hour at room temperature plates are measured using an EnVision™, Perkin Elmer.

T1 sequence (O14842 whole entry): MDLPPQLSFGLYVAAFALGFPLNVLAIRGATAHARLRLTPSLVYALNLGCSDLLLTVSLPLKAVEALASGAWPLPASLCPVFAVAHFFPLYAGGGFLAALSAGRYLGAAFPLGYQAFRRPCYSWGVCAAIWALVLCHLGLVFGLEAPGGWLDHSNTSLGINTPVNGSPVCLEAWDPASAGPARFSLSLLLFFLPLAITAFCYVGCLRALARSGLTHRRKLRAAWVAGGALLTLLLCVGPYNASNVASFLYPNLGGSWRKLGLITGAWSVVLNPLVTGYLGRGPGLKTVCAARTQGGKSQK

Q: Which EC50 does the source give for O=C(O)CC1COc2cc(OC3CCc4c3cccc4C(F)(F)F)ccc21 (mixture of isomers) [Example 1, [6-(4-Trifluoromethyl-indan-1-yloxy)-2,3-dihydro-benzofuran-3-yl]-acetic acid] here?
A: 69 nM

Q: With O=C(O)CC1COc2cc(O[C@@H]3CCc4c(Br)cccc43)ccc21 (mixture of isomers) [Example 6, {6-[(R)-4-Bromo-indan-1-yloxy]-2,3-dihydro-benzofuran-3-yl}-acetic acid] as the compound, how does the EC50 read?
A: 62 nM

Q: Which EC50 does the source give for CC1(C)CCC=C1c1cccc2c1CC[C@H]2Oc1ccc2c(c1)OCC2CC(=O)O (mixture of isomers) [Example 15, {6-[(R)-4-(5,5-Dimethyl-cyclopent-1-enyl)-indan-1-yloxy]-2,3-dihydro-benzofuran-3-yl}-acetic acid] here?
A: 30 nM

Q: How did the EC50 turn out when O=C(O)C[C@H]1COc2cc(O[C@H]3CCc4c3cccc4C(F)(F)F)ccc21 (single isomer, unassigned) [Example 2, [6-(4-Trifluoromethyl-indan-1-yloxy)-2,3-dihydro-benzofuran-3-yl]-acetic acid] was run?
A: 20 nM

Q: For O=C(O)C[C@H]1COc2cc(O[C@H]3CCc4c3cccc4C(F)(F)F)ccc21 (single isomer, unassigned) [Example 5, [6-(4-Trifluoromethyl-indan-1-yloxy)-2,3-dihydro-benzofuran-3-yl]-acetic acid], which EC50 is on record?
A: 8990 nM

Q: For C=CCCC(C)(O)c1cccc2c1CC[C@H]2Oc1ccc2c(c1)OC[C@H]2CC(=O)O (stereo partly drawn) [Example 82, {(S)-6-[(R)-4-(1-Hydroxy-1-methyl-pent-4-enyl)-indan-1-yloxy]-2,3-dihydro-benzofuran-3-yl}-acetic acid], which EC50 is on record?
A: 3350 nM

Q: Which EC50 does the source give for CC(O)(CC1CCOCC1)c1cccc2c1CC[C@H]2Oc1ccc2c(c1)OC[C@H]2CC(=O)O (stereo partly drawn) [Example 83, ((S)-6-{(R)-4-[1-Hydroxy-1-methyl-2-(tetrahydro-pyran-4-yl)-ethyl]-indan-1-yloxy}-2,3-dihydro-benzofuran-3-yl)-acetic acid] here?
A: 392 nM

Q: COC(C)(C)C(F)(F)c1cccc2c1CC[C@H]2Oc1ccc2c(c1)OC[C@H]2CC(=O)O [Example 84, {(S)-6-[(R)-4-(1,1-Difluoro-2-methoxy-2-methyl-propyl)-indan-1-yloxy]-2,3-dihydro-benzofuran-3-yl}-acetic acid] was tested. Which EC50 did it give?
A: 117 nM

Q: How did the EC50 turn out when CC(C)(O)C(F)(F)c1cccc2c1CC[C@H]2Oc1ccc2c(c1)OC[C@H]2CC(=O)O [Example 85, {(S)-6-[(R)-4-(1,1-Difluoro-2-hydroxy-2-methyl-propyl)-indan-1-yloxy]-2,3-dihydro-benzofuran-3-yl}-acetic acid] was run?
A: 3720 nM

Q: With Cc1ncnc(C)c1-c1cccc2c1CC[C@H]2Oc1ccc2c(c1)OC[C@H]2CC(=O)O [Example 86, {(S)-6-[(R)-4-(4,6-Dimethyl-pyrimidin-5-yl)-indan-1-yloxy]-2,3-dihydro-benzofuran-3-yl}-acetic acid] as the compound, how does the EC50 read?
A: 414 nM

Q: CC1(c2cccc3c2CC[C@H]3Oc2ccc3c(c2)OC[C@H]3CC(=O)O)CC1 [Example 87, {(S)-6-[(R)-4-(1-Methyl-cyclopropyl)-indan-1-yloxy]-2,3-dihydro-benzofuran-3-yl}-acetic acid] was tested. Which EC50 did it give?
A: 64 nM

Q: How did the EC50 turn out when O=C(O)C[C@@H]1COc2cc(O[C@@H]3CCc4c(-c5c(Cl)cccc5Cl)cccc43)ccc21 [Example 88, {(S)-6-[(R)-4-(2,6-Dichloro-phenyl)-indan-1-yloxy]-2,3-dihydro-benzofuran-3-yl}-acetic acid] was run?
A: 28 nM

Q: With CC(O)(c1cccc2c1CC[C@H]2Oc1ccc2c(c1)OC[C@H]2CC(=O)O)C(F)(F)F (stereo partly drawn) [Example 89, {(S)-6-[(R)-4-(2,2,2-Trifluoro-1-hydroxy-1-methyl-ethyl)-indan-1-yloxy]-2,3-dihydro-benzofuran-3-yl}-acetic acid] as the compound, how does the EC50 read?
A: 428 nM

Q: For Cc1cccc(Cl)c1-c1cccc2c1CC[C@H]2Oc1ccc2c(c1)OC[C@H]2CC(=O)O [Example 90, {(S)-6-[(R)-4-(2-Chloro-6-methyl-phenyl)-indan-1-yloxy]-2,3-dihydro-benzofuran-3-yl}-acetic acid], which EC50 is on record?
A: 36 nM

Q: How did the EC50 turn out when COc1ccc(C(F)(F)F)c(-c2cccc3c2CC[C@H]3Oc2ccc3c(c2)OC[C@H]3CC(=O)O)n1 [Example 91, {(S)-6-[(R)-4-(6-Methoxy-3-trifluoromethyl-pyridin-2-yl)-indan-1-yloxy]-2,3-dihydro-benzofuran-3-yl}-acetic acid] was run?
A: 69 nM

Q: With Cc1cccc2cccc(-c3cccc4c3CC[C@H]4Oc3ccc4c(c3)OC[C@H]4CC(=O)O)c12 [Example 92, {(S)-6-[(R)-4-(8-Methyl-naphthalen-1-yl)-indan-1-yloxy]-2,3-dihydro-benzofuran-3-yl}-acetic acid] as the compound, how does the EC50 read?
A: 7 nM

Q: Which EC50 does the source give for Cc1ccnc(C)c1-c1cccc2c1CC[C@H]2Oc1ccc2c(c1)OC[C@H]2CC(=O)O [Example 93, {(S)-6-[(R)-4-(2,4-Dimethyl-pyridin-3-yl)-indan-1-yloxy]-2,3-dihydro-benzofuran-3-yl}-acetic acid] here?
A: 61 nM

Q: O=C(O)C[C@@H]1COc2cc(O[C@@H]3CCc4c(-c5ccccc5C(F)(F)C(F)(F)F)cccc43)ccc21 [Example 94, {(S)-6-[(R)-4-(2-Pentafluoroethyl-phenyl)-indan-1-yloxy]-2,3-dihydro-benzofuran-3-yl}-acetic acid] was tested. Which EC50 did it give?
A: 7 nM

Q: Which EC50 does the source give for CC(C)(C)c1ccc2c(c1)CC[C@H]2Oc1ccc2c(c1)OC[C@H]2CC(=O)O [Example 95, {(S)-6-[(R)-5-tert-Butyl-indan-1-yloxy]-2,3-dihydro-benzofuran-3-yl}-acetic acid] here?
A: 100 nM

Q: With CC(C)(C)c1cccc2c1CC[C@H]2Oc1ccc2c(c1)OC[C@H]2CC(=O)O [Example 96, {(S)-6-[(R)-4-tert-Butyl-indan-1-yloxy]-2,3-dihydro-benzofuran-3-yl}-acetic acid] as the compound, how does the EC50 read?
A: 36 nM

Q: For CC(C)(C#N)c1cccc2c1CC[C@H]2Oc1ccc2c(c1)OC[C@H]2CC(=O)O [Example 97, {(S)-6-[(R)-4-(Cyano-dimethyl-methyl)-indan-1-yloxy]-2,3-dihydro-benzofuran-3-yl}-acetic acid], which EC50 is on record?
A: 171 nM

Q: Which EC50 does the source give for O=C(O)C[C@@H]1COc2cc(O[C@@H]3CCc4c3ccc(C(F)(F)F)c4Cl)ccc21 [Example 98, {(S)-6-[(R)-4-Chloro-5-trifluoromethyl-indan-1-yloxy]-2,3-dihydro-benzofuran-3-yl}-acetic acid] here?
A: 46 nM

Q: Cc1nccnc1-c1cccc2c1CC[C@H]2Oc1ccc2c(c1)OC[C@H]2CC(=O)O [Example 99, {(S)-6-[(R)-4-(3-Methyl-pyrazin-2-yl)-indan-1-yloxy]-2,3-dihydro-benzofuran-3-yl}-acetic acid] was tested. Which EC50 did it give?
A: 3270 nM

Q: With COc1ccc(C)c(-c2cccc3c2CC[C@H]3Oc2ccc3c(c2)OC[C@H]3CC(=O)O)c1C [Example 100, {(S)-6-[(R)-4-(3-Methoxy-2,6-dimethyl-phenyl)-indan-1-yloxy]-2,3-dihydro-benzofuran-3-yl}-acetic acid] as the compound, how does the EC50 read?
A: 26 nM

Q: O=C(O)C[C@@H]1COc2cc(O[C@@H]3CCc4c3cccc4C(F)(F)C(F)(F)F)ccc21 [Example 101, {(S)-6-[(R)-4-Pentafluoroethyl-indan-1-yloxy]-2,3-dihydro-benzofuran-3-yl}-acetic acid] was tested. Which EC50 did it give?
A: 25 nM

Target: T1, human GPR40 receptor
Assay: Cytosolic calcium measurement using the FLIPR system
Type: cell-based
Settings: FLIPR cytosolic Ca2+ peak height; 1321N1 cells stably expressing human GPR40; read-out: EC50 values on GPR40 determined as described in (A)
Description: (A) Cytosolic calcium measurement using the FLIPR system—1321N1 cells stably expressing human GPR40 receptor (Euroscreen, Belgium) were seeded 24 h before the assay in black clear-bottom collagen-coated 384-well plates in culture medium containing 10% FCS, 1% Na-Pyruvate and 400 μg/ml G418. On the assay day, wells were washed twice with 100 μL Krebs Ringer Buffer (KRB) containing 15 mM sodium hydrogencarbonate and 30 mM Hepes leaving 20 μl rest volume per well. Prior to stimulation the cells were loaded with the Ca^2+-sensitive fluorescent dye from the Calcium4 Assay Kit™ according to the Manufacturer's description (MDS Analytical technologies, Ismaning, Germany) for 80 min at room temperature in the dark, in the presence of 4 mM probenicid. Changes in cytosolic Ca^2+ concentration upon compound addition were monitored using a FLIPR Tetra device (Fluorescence Imaging Plate Reader; MDS Analytical technologies). The peak height of the obtained fluorescence signal was then used to calculate the EC50 values using GraphPad Prism 5 (Graphpad Software Inc, USA) using a sigmoidal curve fitting procedure allowing for a variable hill slope.

Q: Which EC50 does the source give for O=C(O)CC1COc2cc(OC3CCc4c3cccc4C(F)(F)F)ccc21 (mixture of isomers) [Example 1, [6-(4-Trifluoromethyl-indan-1-yloxy)-2,3-dihydro-benzofuran-3-yl]-acetic acid] here?
A: 50 nM

Q: Which EC50 does the source give for O=C(O)CC1COc2cc(O[C@@H]3CCc4c(Br)cccc43)ccc21 (mixture of isomers) [Example 6, {6-[(R)-4-Bromo-indan-1-yloxy]-2,3-dihydro-benzofuran-3-yl}-acetic acid] here?
A: 49 nM

Q: For CC1(C)CCC=C1c1cccc2c1CC[C@H]2Oc1ccc2c(c1)OCC2CC(=O)O (mixture of isomers) [Example 15, {6-[(R)-4-(5,5-Dimethyl-cyclopent-1-enyl)-indan-1-yloxy]-2,3-dihydro-benzofuran-3-yl}-acetic acid], which EC50 is on record?
A: 3840 nM

Q: Which EC50 does the source give for O=C(O)C[C@H]1COc2cc(O[C@H]3CCc4c3cccc4C(F)(F)F)ccc21 (single isomer, unassigned) [Example 2, [6-(4-Trifluoromethyl-indan-1-yloxy)-2,3-dihydro-benzofuran-3-yl]-acetic acid] here?
A: 27 nM

Q: O=C(O)C[C@H]1COc2cc(O[C@H]3CCc4c3cccc4C(F)(F)F)ccc21 (single isomer, unassigned) [Example 5, [6-(4-Trifluoromethyl-indan-1-yloxy)-2,3-dihydro-benzofuran-3-yl]-acetic acid] was tested. Which EC50 did it give?
A: 2280 nM
